Measured values from patent US20250152758A1, “PROBE FOR NUCLEAR MEDICAL TESTING” (The University of Tokyo, priority 2022, published 2025).

How the values were obtained:
GGT = molecular target: T1, GGT (Homo sapiens, UniProt P19440); test: Enzymatic reaction between gGlu-4^125I-FMA and GGT, HPLC with radiation detector; format: biochemical; conditions: 80 U/mL GGT, 37° C., 3.5 hours, radio-HPLC
T1 construct: purchased wako 307-50673
Procedure: The purified gGlu-4^125I-FMA was dissolved in DPBS(-) to prepare about 5 kBq/μL. The result of the radiation detector when 20 μL of DPBS(-) was added to 5 μL of this solution and the entire amount of 25 μL was injected into the analytical HPLC is shown in the upper left of FIG. 3. Here, the analysis conditions of HPLC are exactly the same as the conditions at the time of purification in FIG. 2.
For analysis of metabolites, 40 μL of a 100 U/mL GGT solution (final concentration: 80 U/mL) was added to 10 μL of the above gGlu-4^125I-FMA solution, and the mixture was stirred at 37° C. and 500 rpm for 3.5 hours using a shaker. The result of the radiation detector when a half amount 25 μL from this reaction liquid was injected for analysis is shown in the upper left of FIG. 3. The lower right is a result of extracting 254 nm with PDA when a cold preparation of 2-amino-5-iodobenzylalcohol obtained by producing azaquinone methide after gGlu-4^125I-FMA was metabolized by GGT, and reacting azaquinone methide with water that would be the main nucleophile in this enzymatic reaction experiment was analyzed under the same analysis conditions.

[1] = tested on: SHIN3 (high GGT activity) cells; test: Intracellular uptake test in cells with high GGT activity, with or without GGT inhibitor GGsTop; format: cell-based
Procedure: (§1) Intracellular uptake of gGlu-4^125I-FMA was evaluated using cells with high or low GGT activity and a GGT inhibitor, GGsTop, by the procedure shown in FIG. 4.
(§2) First, SHIN3 (high GGT activity) and SKOV3 (low GGT activity) cells were seeded in 12 well culture plates and incubated for 1 day. Next, the medium of each well was changed to fresh medium containing gGlu-4^125I-FMA (and GGsTop), and the cells were incubated for 6 hours. Thereafter, the medium was removed and the plates were washed three times with PBS(-). Then, the cells were collected, radioactivity from the cells was measured with a Y-counter, and the number of cells was counted.
(§3) Since there was almost no radioactivity in the third wash fraction and the radioactivity from the cell fraction was much higher than that, it is considered that the radioactivity from the cell fraction is derived from the nuclide retained in the cell.

[2] = tested on: SKOV3 (low GGT activity) cells; test: Intracellular uptake test in cells with low GGT activity; format: cell-based; conditions: SKOV3, 6 hours incubation, gamma counter
Procedure: as §1, §2, §3

[3] = tested on: A549 tumor (high GGT activity); test: Intratumoral administration to subcutaneous tumor model mouse, SPECT/CT imaging (high GGT tumor); format: in vivo; conditions: about 150 kBq intratumoral, images 30 minutes, 2 hours, 5 hours
Procedure: (§4) On the basis of the results of Example 2, a probe was intratumorally administered to a subcutaneous tumor model mouse, and SPECT/CT imaging was performed.
(§5) A model mouse was prepared in which A549 cells with high GGT activity were transplanted subcutaneously on the left side of the body, and H226 cells with low GGT activity were transplanted subcutaneously on the right side of the body. Into subcutaneous tumors of A549 (high GGT activity, left side) and H226 (low GGT activity, right side), gGlu-4^125I-FMA of about 150 kBq in 30 μL PBS(-) was directly administered. SPECT/CT images were acquired 30 minutes, 2 hours, and 5 hours after administration.

[4] = tested on: H226 tumor (low GGT activity); test: Intratumoral administration to subcutaneous tumor model mouse, SPECT/CT imaging (low GGT tumor); format: in vivo; conditions: about 150 kBq intratumoral, images 30 minutes, 2 hours, 5 hours
Procedure: as §4, §5

[5] = tested on: A549-luc-C8 cells with high GGT activity (peritoneal dissemination); test: Visualization of peritoneal metastasis by intraperitoneal administration, SPECT/CT and autoradiography; format: in vivo, mouse; conditions: for signals in the abdomen (SPECT/CT): 5 hours after administration
Procedure: Next, according to the procedure shown in the left figure of FIG. 7, peritoneal dissemination model mice were prepared, and gGlu-4^125I-FMA was intraperitoneally administered. First, A549-luc-C8 cells with high GGT activity were transplanted into the abdominal cavity of the mouse and bred for 1 week. Luciferin potassium was intraperitoneally administered, and tumor growth was confirmed by luminescence imaging using IVIS (right figure in FIG. 7). Next, gGlu-4^125I-FMA was intraperitoneally administered (to 3 MBq) to the peritoneal model mouse and a tumor-free mouse, and SPECT/CT imaging was performed by NanoSPECT/CT. […] They are shown as Maximum Intensity Projection (MIP) images.
In addition, the peritoneal dissemination model mouse in the left figure was dissected after 5 hours of imaging, and the intestines and mesentery were taken out and imaged by autoradiography (ARG) (FIG. 9). […] From this, it is considered that the signals scattered in the abdominal cavity in the SPECT/CT on the left of FIG. 8 correspond to the peritoneal dissemination.

T1 sequence (P19440 whole entry, species assumed): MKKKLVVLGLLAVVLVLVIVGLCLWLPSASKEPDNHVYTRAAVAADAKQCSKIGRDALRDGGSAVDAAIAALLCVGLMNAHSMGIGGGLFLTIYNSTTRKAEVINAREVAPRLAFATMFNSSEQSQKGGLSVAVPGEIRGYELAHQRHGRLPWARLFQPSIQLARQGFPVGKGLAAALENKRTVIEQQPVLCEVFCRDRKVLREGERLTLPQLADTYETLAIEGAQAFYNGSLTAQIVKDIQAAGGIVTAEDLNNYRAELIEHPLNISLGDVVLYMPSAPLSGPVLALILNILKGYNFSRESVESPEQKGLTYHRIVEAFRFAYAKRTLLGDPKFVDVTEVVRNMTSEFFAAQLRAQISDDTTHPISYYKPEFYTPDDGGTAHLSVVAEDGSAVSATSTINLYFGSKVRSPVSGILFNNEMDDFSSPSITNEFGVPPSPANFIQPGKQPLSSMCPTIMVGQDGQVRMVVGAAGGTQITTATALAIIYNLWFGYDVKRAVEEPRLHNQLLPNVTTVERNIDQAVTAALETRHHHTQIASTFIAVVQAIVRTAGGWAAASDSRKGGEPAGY

Question: What does the source list for N[C@@H](CCC(=O)Nc1ccc([125I])cc1CF)C(=O)O [gGlu-4^125I-FMA]?
Answer: metabolite formed on reaction with GGT (GGT): converted to 2-amino-5-iodobenzylalcohol; uptake rate without inhibitor compared with the case of adding an inhibitor ([1]; SHIN3, 6 hours incubation, GGsTop as inhibitor, gamma counter, standardized by number of cells): about 30 times; retention of incorporated probe in the cell after wash operation ([1]; three washes with PBS(-)): remains in the cell at a certain ratio and withstands washout; uptake rate [2]: suppressed to be low; radioactivity in tumor (SPECT/CT) [3]: clearly remains; radioactivity in tumor (SPECT/CT) [4]: rapidly attenuated; clearance of probe from abdominal cavity (SPECT/CT) ([5]; i.p., after 30 minutes): almost disappeared from the abdominal cavity; signals in the bladder (SPECT/CT) ([5]; i.p., after 30 minutes): many signals gathered in the bladder; uptake in intestines and mesentery by autoradiography (ARG) ([5]; peritoneal dissemination model mouse dissected after 5 hours of imaging): uptake of radionuclides was observed in agreement with minute peritoneal dissemination; signals in the abdomen (SPECT/CT) ([5]; peritoneal dissemination model mouse, i.p.): only scattered signals remained in the abdomen; signals in the abdomen (SPECT/CT) ([5]; tumor-free mouse, i.p.): not observed
